Results published in article PMC5218480 (PLoS ONE, 2017).

Test system: MV-4-11 cells
Test: Gene expression microarray analysis (Affymetrix PrimeView) and GSEA
Format: cell-based, human
Parameters: RFU PODN (11730768_x_at) / Fold change /veh PODN (11730768_x_at) / RFU LINC00158 (11744669_a_at) / Fold change /veh LINC00158 (11744669_a_at) / RFU DUSP10 (11751237_a_at) / Fold change /veh DUSP10 (11751237_a_at) / RFU ID3 (11757404_x_at) / Fold change /veh ID3 (11757404_x_at) / RFU PLEKHG5 (11737974_s_at) / Fold change /veh PLEKHG5 (11737974_s_at) / RFU LRRC4B (11730491_at) / Fold change /veh LRRC4B (11730491_at) / RFU GIMAP4 (11747438_a_at) / Fold change /veh GIMAP4 (11747438_a_at) / RFU KRT8 (11758183_x_at) / Fold change /veh KRT8 (11758183_x_at) / RFU CNN1 (11734310_a_at) / Fold change /veh CNN1 (11734310_a_at) / RFU VPS37D (11726825_at) / Fold change /veh VPS37D (11726825_at) / RFU C10orf10 (11716522_x_at) / Fold change /veh C10orf10 (11716522_x_at) / RFU KIR2DL2 /// KIR2DL4 /// KIR2DL5A /// KIR2DL5B /// KIR2DS1 /// KIR2DS2 /// KIR2DS3 /// KIR2DS4 /// KIR3DL3 /// KIR3DL3 /// KIR3DS1 (11738374_at) / Fold change /veh KIR2DL2 /// KIR2DL4 /// KIR2DL5A /// KIR2DL5B /// KIR2DS1 /// KIR2DS2 /// KIR2DS3 /// KIR2DS4 /// KIR3DL3 /// KIR3DL3 /// KIR3DS1 (11738374_at) / RFU C1QL1 (11718748_at) / Fold change /veh C1QL1 (11718748_at) / RFU TMPRSS4 (11747572_a_at) / Fold change /veh TMPRSS4 (11747572_a_at) / RFU HAMP (11756126_x_at) / Fold change /veh HAMP (11756126_x_at) / RFU RNFT2 (11725882_a_at) / Fold change /veh RNFT2 (11725882_a_at) / RFU NR4A2 (11747474_a_at) / Fold change /veh NR4A2 (11747474_a_at) / RFU ABCC12 (11746883_a_at) / Fold change /veh ABCC12 (11746883_a_at) / RFU TMEM136 (11760407_x_at) / Fold change /veh TMEM136 (11760407_x_at) / RFU CLDN22 /// WWC2 (11732394_at) / Fold change /veh CLDN22 /// WWC2 (11732394_at) / RFU HLA-DPB1 (11760878_x_at) / Fold change /veh HLA-DPB1 (11760878_x_at) / RFU SPINT1 (11716480_a_at) / Fold change /veh SPINT1 (11716480_a_at) / RFU GAP43 (11754022_s_at) / Fold change /veh GAP43 (11754022_s_at) / RFU A4GNT (11735810_at) / Fold change /veh A4GNT (11735810_at) / RFU PRB3 (11715151_x_at) / Fold change /veh PRB3 (11715151_x_at) / RFU TUBB4B (11761932_at) / Fold change /veh TUBB4B (11761932_at) / RFU CAPN14 (11732068_a_at) / Fold change /veh CAPN14 (11732068_a_at) / RFU TMCC2 (11721928_a_at) / Fold change /veh TMCC2 (11721928_a_at) / RFU IRGQ (11745062_a_at) / Fold change /veh IRGQ (11745062_a_at) / RFU FAM174B (11720279_a_at) / Fold change /veh FAM174B (11720279_a_at) / RFU TMPRSS4 (11748680_a_at) / Fold change /veh TMPRSS4 (11748680_a_at) / RFU FAM212B (11763350_a_at) / Fold change /veh FAM212B (11763350_a_at) / RFU PLEKHG5 (11743358_a_at) / Fold change /veh PLEKHG5 (11743358_a_at) / RFU ZSCAN30 (11745921_a_at) / Fold change /veh ZSCAN30 (11745921_a_at) / RFU CMKLR1 (11741424_a_at) / Fold change /veh CMKLR1 (11741424_a_at) / RFU LOC101060620 /// MAPK8IP1 (11723275_at) / Fold change /veh LOC101060620 /// MAPK8IP1 (11723275_at) / RFU SPTSSB (11747773_x_at) / Fold change /veh SPTSSB (11747773_x_at) / RFU PRSS12 (11739890_at) / Fold change /veh PRSS12 (11739890_at) / RFU BIN1 (11741810_x_at) / Fold change /veh BIN1 (11741810_x_at) / RFU WNT11 (11732464_a_at) / Fold change /veh WNT11 (11732464_a_at) / RFU C10orf10 (11716521_a_at) / Fold change /veh C10orf10 (11716521_a_at) / RFU C5orf56 (11738089_at) / Fold change /veh C5orf56 (11738089_at) / RFU CYB561 (11721691_x_at) / Fold change /veh CYB561 (11721691_x_at) / RFU ANKRD19P (11752326_a_at) / Fold change /veh ANKRD19P (11752326_a_at) / RFU OR2T12 /// OR2T33 /// OR2T8 (11738714_s_at) / Fold change /veh OR2T12 /// OR2T33 /// OR2T8 (11738714_s_at) / RFU VCAN (11748164_a_at) / Fold change /veh VCAN (11748164_a_at) / RFU JSRP1 (11732532_at) / Fold change /veh JSRP1 (11732532_at) / RFU KRTAP10-11 (11738290_x_at) / Fold change /veh KRTAP10-11 (11738290_x_at) / RFU MYO3A (11730013_a_at) / Fold change /veh MYO3A (11730013_a_at) / RFU EBF3 (11725865_a_at) / Fold change /veh EBF3 (11725865_a_at) / RFU CAMK2N1 (11719241_x_at) / Fold change /veh CAMK2N1 (11719241_x_at) / RFU C5orf56 (11738088_a_at) / Fold change /veh C5orf56 (11738088_a_at) / RFU OLFML3 (11715873_a_at) / Fold change /veh OLFML3 (11715873_a_at) / RFU LOC100653217 /// NTM (11731650_a_at) / Fold change /veh LOC100653217 /// NTM (11731650_a_at) / RFU MAPK11 (11762145_a_at) / Fold change /veh MAPK11 (11762145_a_at) / RFU FIZ1 (11724087_x_at) / Fold change /veh FIZ1 (11724087_x_at) / RFU OASL (11726364_x_at) / Fold change /veh OASL (11726364_x_at) / RFU SOX15 (11748057_x_at) / Fold change /veh SOX15 (11748057_x_at) / RFU CD79A (11719716_a_at) / Fold change /veh CD79A (11719716_a_at) / RFU HIST1H1D (11736915_at) / Fold change /veh HIST1H1D (11736915_at) / RFU CASKIN2 (11723855_a_at) / Fold change /veh CASKIN2 (11723855_a_at) / RFU LOC730098 (11760151_x_at) / Fold change /veh LOC730098 (11760151_x_at) / RFU OR4N2 (11742367_at) / Fold change /veh OR4N2 (11742367_at) / RFU PRRT2 (11749266_a_at) / Fold change /veh PRRT2 (11749266_a_at) / RFU SNX32 (11753110_a_at) / Fold change /veh SNX32 (11753110_a_at) / RFU CDHR5 (11726645_a_at) / Fold change /veh CDHR5 (11726645_a_at) / RFU RCAN1 (11760418_a_at) / Fold change /veh RCAN1 (11760418_a_at) / RFU FAM167A (11723789_a_at) / Fold change /veh FAM167A (11723789_a_at) / RFU FAM26E (11764081_at) / Fold change /veh FAM26E (11764081_at) / RFU ISYNA1 (11749810_s_at) / Fold change /veh ISYNA1 (11749810_s_at) / RFU ACY1 (11761880_at) / Fold change /veh ACY1 (11761880_at) / RFU 11764098_at / Fold change /veh 11764098_at / RFU SAMD14 (11745864_x_at) / Fold change /veh SAMD14 (11745864_x_at) / RFU NPB (11741838_a_at) / Fold change /veh NPB (11741838_a_at) / RFU TMPRSS6 (11731388_a_at) / Fold change /veh TMPRSS6 (11731388_a_at) / RFU KRTAP10-2 (11738614_at) / Fold change /veh KRTAP10-2 (11738614_at) / RFU ARHGAP8 /// PRR5-ARHGAP8 (11727945_x_at) / Fold change /veh ARHGAP8 /// PRR5-ARHGAP8 (11727945_x_at) / RFU KRTAP5-7 /// NADSYN1 (11734609_at) / Fold change /veh KRTAP5-7 /// NADSYN1 (11734609_at) / RFU RASL12 (11751679_a_at) / Fold change /veh RASL12 (11751679_a_at) / RFU CDKN2B (11736163_a_at) / Fold change /veh CDKN2B (11736163_a_at) / RFU PRF1 (11729649_at) / Fold change /veh PRF1 (11729649_at) / RFU, ZNF638 /// ZNF638-IT1 / Fold change vs veh, ZNF638 /// ZNF638-IT1 / RFU, PANK3 / Fold change vs veh, PANK3 / RFU, SH3YL1 / Fold change vs veh, SH3YL1 / RFU, ZEB2 / Fold change vs veh, ZEB2 / RFU, NRIP1 / Fold change vs veh, NRIP1 / RFU, PTTG1IP / Fold change vs veh, PTTG1IP / RFU, CAPN2 / Fold change vs veh, CAPN2 / RFU, MED14 / Fold change vs veh, MED14 / RFU, SNORA58 / Fold change vs veh, SNORA58 / RFU, C1orf63 / Fold change vs veh, C1orf63 / RFU, LRRFIP1 / Fold change vs veh, LRRFIP1 / RFU, NDUFAF7 / Fold change vs veh, NDUFAF7 / RFU, SLC12A2 / Fold change vs veh, SLC12A2 / RFU, IBTK / Fold change vs veh, IBTK / RFU, ESF1 / Fold change vs veh, ESF1 / Fold change vs veh, TMEM50B / RFU, TAOK1 / Fold change vs veh, TAOK1 / RFU, ACBD3 / Fold change vs veh, ACBD3 / RFU, TMA16 / Fold change vs veh, TMA16 / RFU, RWDD3 / Fold change vs veh, RWDD3 / RFU, BCAT1 / Fold change vs veh, BCAT1 / RFU, EDEM3 / Fold change vs veh, EDEM3 / RFU, TMEM33 / Fold change vs veh, TMEM33 / RFU, WDR75 / Fold change vs veh, WDR75 / RFU, AHCTF1 / Fold change vs veh, AHCTF1 / RFU, TFRC / Fold change vs veh, TFRC / RFU, ZDHHC17 / Fold change vs veh, ZDHHC17 / RFU, NOM1 / Fold change vs veh, NOM1 / RFU, ARL8B / Fold change vs veh, ARL8B / RFU, ZBTB11 / Fold change vs veh, ZBTB11 / RFU, TAMM41 / Fold change vs veh, TAMM41 / RFU, KIAA1704 /// LOC100996395 / Fold change vs veh, KIAA1704 /// LOC100996395 / RFU, ING1 / Fold change vs veh, ING1 / RFU, TRMT61B / Fold change vs veh, TRMT61B / RFU, FUBP3 / Fold change vs veh, FUBP3 / RFU, TP53 / Fold change vs veh, TP53 / RFU, TNKS2 / Fold change vs veh, TNKS2 / RFU, ZFP14 / Fold change vs veh, ZFP14 / RFU, ACTR2 / Fold change vs veh, ACTR2 / RFU, PPP3R1 / Fold change vs veh, PPP3R1 / RFU, PIK3R1 / Fold change vs veh, PIK3R1 / RFU, HNRNPA1 / Fold change vs veh, HNRNPA1 / RFU, RNF170 / Fold change vs veh, RNF170 / RFU, ZNF28 / Fold change vs veh, ZNF28 / RFU, RNGTT / Fold change vs veh, RNGTT / RFU, OGT / Fold change vs veh, OGT / RFU, BRD1 / Fold change vs veh, BRD1 / RFU, MARS / Fold change vs veh, MARS / RFU, ZNF655 / Fold change vs veh, ZNF655 / RFU, FAHD1 / Fold change vs veh, FAHD1 / RFU, BDP1 / Fold change vs veh, BDP1 / RFU, LRRCC1 / Fold change vs veh, LRRCC1 / RFU, ARID1A / Fold change vs veh, ARID1A / RFU, ZNF146 / Fold change vs veh, ZNF146 / RFU, ZNF330 / Fold change vs veh, ZNF330 / RFU, GPN3 / Fold change vs veh, GPN3 / RFU, C9orf123 / Fold change vs veh, C9orf123 / RFU, N4BP2L2 / Fold change vs veh, N4BP2L2 / RFU, ARFIP1 / Fold change vs veh, ARFIP1 / RFU, FAM179B / Fold change vs veh, FAM179B / RFU, BCL10 / Fold change vs veh, BCL10 / RFU, UHRF1BP1L / Fold change vs veh, UHRF1BP1L / RFU, BET1 / Fold change vs veh, BET1 / RFU, CNOT2 / Fold change vs veh, CNOT2 / RFU, ZNF268 / Fold change vs veh, ZNF268 / Fold change vs veh, ZNF507 / RFU, DGCR2 / Fold change vs veh, DGCR2 / RFU, WDSUB1 / Fold change vs veh, WDSUB1 / Fold change vs veh, HSP90B1 /// MIR3652 / RFU, ADSS / Fold change vs veh, ADSS / RFU, GK / Fold change vs veh, GK / RFU, ZNF148 / Fold change vs veh, ZNF148 / RFU, TAF9 / Fold change vs veh, TAF9 / RFU, SLC1A5 / Fold change vs veh, SLC1A5 / RFU, SLMO2 / Fold change vs veh, SLMO2 / RFU, ABCC4 / Fold change vs veh, ABCC4 / RFU, LOC101060439 /// RAP1B / Fold change vs veh, LOC101060439 /// RAP1B / RFU, RFX7 / Fold change vs veh, RFX7 / RFU, GTPBP10 / Fold change vs veh, GTPBP10 / RFU, CNEP1R1 / Fold change vs veh, CNEP1R1 / RFU, BIVM-ERCC5 /// ERCC5 / Fold change vs veh, BIVM-ERCC5 /// ERCC5 / RFU, ILF3 / Fold change vs veh, ILF3 / RFU 11762660_at / Fold change /veh 11762660_at / RFU VCAN (11757783_s_at) / Fold change /veh VCAN (11757783_s_at) / RFU DDX43 (11728927_at) / Fold change /veh DDX43 (11728927_at) / RFU KRT8 (11758188_x_at) / Fold change /veh KRT8 (11758188_x_at) / RFU NKD1 (11759106_at) / Fold change /veh NKD1 (11759106_at) / RFU SRD5A1 (11742802_a_at) / Fold change /veh SRD5A1 (11742802_a_at) / RFU TPSAB1 /// TPSB2 (11721975_s_at) / Fold change /veh TPSAB1 /// TPSB2 (11721975_s_at) / RFU GSTM3 (11746129_a_at) / Fold change /veh GSTM3 (11746129_a_at) / RFU IL23R (11737362_x_at) / Fold change /veh IL23R (11737362_x_at) / RFU TMEM51 (11727254_a_at) / Fold change /veh TMEM51 (11727254_a_at) / RFU PIWIL2 (11732686_x_at) / Fold change /veh PIWIL2 (11732686_x_at) / RFU ORM1 (11744905_x_at) / Fold change /veh ORM1 (11744905_x_at) / RFU CCDC152 (11743942_at) / Fold change /veh CCDC152 (11743942_at) / RFU ECM1 (11717891_a_at) / Fold change /veh ECM1 (11717891_a_at) / RFU IL23R (11748794_a_at) / Fold change /veh IL23R (11748794_a_at) / RFU TNFAIP8L3 (11732012_x_at) / Fold change /veh TNFAIP8L3 (11732012_x_at) / RFU MBOAT4 (11741988_at) / Fold change /veh MBOAT4 (11741988_at) / RFU 11764193_at / Fold change /veh 11764193_at / RFU TMEM53 (11763286_at) / Fold change /veh TMEM53 (11763286_at) / RFU MAGEB2 (11727129_at) / Fold change /veh MAGEB2 (11727129_at) / RFU TMEM200A (11744735_a_at) / Fold change /veh TMEM200A (11744735_a_at) / RFU CCDC152 (11751479_a_at) / Fold change /veh CCDC152 (11751479_a_at) / RFU FAM211A (11726209_a_at) / Fold change /veh FAM211A (11726209_a_at) / RFU RGS16 (11746705_a_at) / Fold change /veh RGS16 (11746705_a_at) / RFU VCAN (11755009_s_at) / Fold change /veh VCAN (11755009_s_at) / RFU RHOB (11743442_s_at) / Fold change /veh RHOB (11743442_s_at) / RFU RGS16 (11720943_a_at) / Fold change /veh RGS16 (11720943_a_at) / RFU RGS16 (11720944_at) / Fold change /veh RGS16 (11720944_at) / RFU, VPS4B / Fold change vs veh, VPS4B / RFU, CREB1 / Fold change vs veh, CREB1 / RFU, DNAJC13 / Fold change vs veh, DNAJC13 / RFU, GNAQ / Fold change vs veh, GNAQ / RFU, CDK5R1 / Fold change vs veh, CDK5R1 / RFU, ZRANB3 / Fold change vs veh, ZRANB3 / RFU, CUL4A / Fold change vs veh, CUL4A / RFU, CCNY / Fold change vs veh, CCNY / RFU, UFL1 / Fold change vs veh, UFL1 / RFU, COG3 / Fold change vs veh, COG3 / RFU, DIAPH2 / Fold change vs veh, DIAPH2 / RFU, SKA2 / Fold change vs veh, SKA2 / RFU, AFF3 / Fold change vs veh, AFF3 / RFU, LMF1 / Fold change vs veh, LMF1 / RFU, IPO11 / Fold change vs veh, IPO11 / RFU, DFFB / Fold change vs veh, DFFB / RFU, FOXP1 / Fold change vs veh, FOXP1 / RFU, CARD8 / Fold change vs veh, CARD8 / RFU, STRN3 / Fold change vs veh, STRN3 / RFU, ADK / Fold change vs veh, ADK / RFU, RASSF2 / Fold change vs veh, RASSF2 / RFU, WIPF1 / Fold change vs veh, WIPF1 / RFU, LARP1B / Fold change vs veh, LARP1B / RFU, RASA1 / Fold change vs veh, RASA1 / RFU, RB1 / Fold change vs veh, RB1 / RFU, PPFIA1 / Fold change vs veh, PPFIA1 / RFU, MAT2A / Fold change vs veh, MAT2A / RFU, CCT5 / Fold change vs veh, CCT5 / RFU, WDR92 / Fold change vs veh, WDR92 / RFU, CUX1 / Fold change vs veh, CUX1 / RFU, TTC7A / Fold change vs veh, TTC7A / RFU, TMEM135 / Fold change vs veh, TMEM135 / RFU, DEPTOR / Fold change vs veh, DEPTOR / RFU, CPM / Fold change vs veh, CPM / RFU, DNAJB6 / Fold change vs veh, DNAJB6 / RFU, CACNA2D3 / Fold change vs veh, CACNA2D3 / RFU, DTX4 / Fold change vs veh, DTX4 / RFU, TFCP2 / Fold change vs veh, TFCP2 / RFU, GMCL1 /// GMCL1P1 / Fold change vs veh, GMCL1 /// GMCL1P1 / RFU, AEBP2 / Fold change vs veh, AEBP2 / RFU, SNHG1 /// SNORD22 /// SNORD25 /// SNORD26 /// SNORD27 /// SNORD28 /// SNORD29 /// SNORD31 / Fold change vs veh, SNHG1 /// SNORD22 /// SNORD25 /// SNORD26 /// SNORD27 /// SNORD28 /// SNORD29 /// SNORD31 / Fold change (Aza/veh), C12orf56 (ProbeSet 11735607_a_at) / Fold change (ACY-1035/veh), C12orf56 (ProbeSet 11735607_a_at) / Fold change (Aza/veh), FGFR1OP (ProbeSet 11751329_s_at) / Fold change (ACY-1035/veh), FGFR1OP (ProbeSet 11751329_s_at) / Fold change (Aza/veh), VPS36 (ProbeSet 11739960_a_at) / Fold change (ACY-1035/veh), VPS36 (ProbeSet 11739960_a_at) / RFU SYPL1 (11715823_x_at) / Fold change /veh SYPL1 (11715823_x_at) / RFU IGFBP7 (11715501_s_at) / Fold change /veh IGFBP7 (11715501_s_at) / RFU REEP3 (11722064_at) / Fold change /veh REEP3 (11722064_at) / RFU IGLL1 (11728026_x_at) / Fold change /veh IGLL1 (11728026_x_at): dose or concentration left out as unconfirmed
Settings: ProbeSet 11731610_x_at; LIST B

For `Nc1ncn([C@@H]2O[C@H](CO)[C@@H](O)[C@H]2O)c(=O)n1` [azacitidine], the “Fold change vs veh, KIAA1704 /// LOC100996395” value was 1.05.
